Patent US20170022171A1, “2,5-DISUBSTITUTED CYCLOPENTANECARBOXYLIC ACIDS AND THEIR USE” (Bayer Pharma Aktiengesellschaft, priority 2014, published 2017)

Target: T1, human macrophage elastase (HME/hMMP-12) (Homo sapiens, UniProt P39900)
T1 construct: 0.5 nM HME; purchased R&D Systems 917-MP
Assay: In vitro HME inhibition test (standard or high-sensitivity)
Format: biochemical
Conditions: in some cases mean values
Protocol: The potency of the compounds according to the invention with respect to HME (MMP-12) is determined in an in vitro inhibition test. The HME-mediated amidolytic cleavage of a suitable peptide substrate leads to an increase in fluorescent light therein. The signal intensity of the fluorescent light is directly proportional to the enzyme activity. The active concentration of a test compound at which half the enzyme is inhibited (50% signal intensity of the fluorescent light) is reported as the IC50 value.
In a 384 hole microtiter plate, in a total test volume of 41 the test buffer (0.1 M HEPES pH 7.4, 0.15 M NaCl, 0.03 M CaCl2, 0.004 mM ZnCl2, 0.02 M EDTA, 0.005% Brij®), the enzyme (0.5 nM HME; from R&D Systems, 917-MP, autocatalytic activation according to the manufacturer's instructions) and the intramolecularly quenched substrate [5 μM Mca-Pro-Leu-Gly-Leu-Glu-Glu-Ala-Dap(Dnp)-NH2; Bachem, M-2670] are incubated in the absence and presence of the test substance (as a solution in DMSO) at 37° C. for two hours. The fluorescence intensity of the test mixtures is measured (excitation […], emission 393 nm). The IC50 values are ascertained by plotting the fluorescent light intensity against the active ingredient concentration.
In this case, an enzyme concentration ten times lower is used (final concentration, for example, 0.05 nM) in order to achieve an elevated test sensitivity. The incubation period chosen for the test is correspondingly longer (for example 16 hours).

T1 sequence (P39900 106-470): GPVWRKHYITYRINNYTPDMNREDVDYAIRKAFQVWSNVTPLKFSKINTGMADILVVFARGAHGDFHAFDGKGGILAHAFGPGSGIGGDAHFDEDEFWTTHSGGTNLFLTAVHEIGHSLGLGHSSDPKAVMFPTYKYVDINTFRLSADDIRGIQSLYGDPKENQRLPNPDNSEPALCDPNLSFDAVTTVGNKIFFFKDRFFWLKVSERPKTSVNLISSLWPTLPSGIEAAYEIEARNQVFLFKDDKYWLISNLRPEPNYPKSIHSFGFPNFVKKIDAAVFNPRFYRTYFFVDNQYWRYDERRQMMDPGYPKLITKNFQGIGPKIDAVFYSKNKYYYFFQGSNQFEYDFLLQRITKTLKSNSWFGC

SMILES | IC50 [nM]
O=C(O)[C@@H]1[C@@H](Cn2nnc3ccc(C(F)(F)F)cc3c2=O)CC[C@H]1C(=O)c1ccc(OCc2cccc(N3CCOC3=O)c2)cc1 (single isomer, unassigned) [Example 34, (−)-(1RS,2RS,5SR)-2-(4-{[3-(2-Oxo-1,3-oxazolidin-3-yl)benzyl]oxy}benzoyl)-5-{[4-oxo-6-(trifluoromethyl)-1,2,3-benzotriazin-3(4H)-yl]methyl}cyclopentanecarboxylic acid] | 160
O=C(O)[C@@H]1[C@@H](Cn2nnc3ccc(C(F)(F)F)cc3c2=O)CC[C@H]1C(=O)c1ccc(OCCC2CCCCC2)cc1 (single isomer, unassigned) [Example 51, (−)-(1RS,2RS,5SR)-2-[4-(2-Cyclohexylethoxy)benzoyl]-5-{[4-oxo-6-(trifluoromethyl)-1,2,3-benzotriazin-3(4H)-yl]methyl}cyclopentanecarboxylic acid] | 30
Cc1ccc2nnn(C[C@H]3CC[C@@H](C(=O)c4ccc(OCc5ccc(F)cc5)cc4)[C@@H]3C(=O)O)c(=O)c2c1 (single isomer, unassigned) [Example 96, (−)-(1RS,2RS,5SR)-2-{4-[(4-Fluorobenzyl)oxy]benzoyl}-5-[(6-methyl-4-oxo-1,2,3-benzotriazin-3(4H)-yl)methyl]cyclopentanecarboxylic acid] | 120
Cc1ccc2nnn(C[C@H]3CC[C@@H](C(=O)c4ccc(OCc5cccc(OC(F)(F)F)c5)cc4)[C@@H]3C(=O)O)c(=O)c2c1 (single isomer, unassigned) [Example 111, (−)-(1RS,2SR,5RS)-2-[(6-Methyl-4-oxo-1,2,3-benzotriazin-3(4H)-yl)methyl]-5-(4-{[3-(trifluoromethoxy)benzyl]oxy}benzoyl)cyclopentanecarboxylic acid] | 140
CCCCCCOc1ccc(C(=O)[C@H]2CC[C@@H](Cn3nnc4ccccc4c3=O)[C@@H]2C(=O)O)cc1 (racemic) [Example 6, (+/−)-(1RS,2RS,5SR)-2-[4-(Hexyloxy)benzoyl]-5-[(4-oxo-1,2,3-benzotriazin-3(4H)-yl)methyl]cyclopentanecarboxylic acid] | 0.17
O=C(O)[C@@H]1[C@@H](Cn2nnc3ccc(C(F)(F)F)cc3c2=O)CC[C@H]1C(=O)c1ccc(OCC2CCC2)cc1 (single isomer, unassigned) [Example 47, (+)-(1RS,2RS,5SR)-2-[4-(Cyclobutylmethoxy)benzoyl]-5-{[4-oxo-6-(trifluoromethyl)-1,2,3-benzotriazin-3(4H)-yl]methyl}cyclopentanecarboxylic acid] | 0.025
O=C(O)[C@@H]1[C@@H](Cn2nnc3ccc(C(F)(F)F)cc3c2=O)CC[C@H]1C(=O)c1ccc(OCC2CCCC2)cc1 (single isomer, unassigned) [Example 45, (−)-(1RS,2RS,5SR)-2-[4-(Cyclopentylmethoxy)benzoyl]-5-{[4-oxo-6-(trifluoromethyl)-1,2,3-benzotriazin-3(4H)-yl]methyl}cyclopentanecarboxylic acid] | 4.1
CCCCCOc1ccc(C(=O)[C@@H]2CC[C@H](Cn3nnc4ccc(C)cc4c3=O)[C@H]2C(=O)O)cc1 (single isomer, unassigned) [Example 125, (−)-(1RS,2SR,5RS)-2-[(6-Methyl-4-oxo-1,2,3-benzotriazin-3(4H)-yl)methyl]-5-[4-(pentyloxy)benzoyl]cyclopentanecarboxylic acid] | 6.7
O=C(O)[C@@H]1[C@@H](Cn2nnc3ccc(C(F)(F)F)cc3c2=O)CC[C@H]1C(=O)c1ccc(OCC2CCC2)cc1 (single isomer, unassigned) [Example 48, (−)-(1RS,2RS,5SR)-2-[4-(Cyclobutylmethoxy)benzoyl]-5-{[4-oxo-6-(trifluoromethyl)-1,2,3-benzotriazin-3(4H)-yl]methyl}cyclopentanecarboxylic acid] | 290
CCCCCCOc1ccc(C(=O)[C@H]2CC[C@@H](Cn3nnc4ccc(C)cc4c3=O)[C@@H]2C(=O)O)cc1 (racemic) [Example 120, (+/−)-(1RS,2RS,5SR)-2-[4-(Hexyloxy)benzoyl]-5-[(6-methyl-4-oxo-1,2,3-benzotriazin-3(4H)-yl)methyl]cyclopentanecarboxylic acid] | 0.1
Cc1cccc(COc2ccc(C(=O)[C@@H]3CC[C@H](Cn4nnc5ccc(C)cc5c4=O)[C@H]3C(=O)O)cc2)c1 (single isomer, unassigned) [Example 99, (−)-(1RS,2RS,5SR)-2-{4-[(3-Methylbenzyl)oxy]benzoyl}-5-[(6-methyl-4-oxo-1,2,3-benzotriazin-3(4H)-yl)methyl]cyclopentanecarboxylic acid] | 210
CC(C)COc1ccc(C(=O)[C@H]2CC[C@@H](Cn3nnc4ccc(C(F)(F)F)cc4c3=O)[C@@H]2C(=O)O)cc1 (racemic) [Example 72, (+/−)-(1RS,2RS,5SR)-2-(4-Isobutoxybenzoyl)-5-{[4-oxo-6-(trifluoromethyl)-1,2,3-benzotriazin-3(4H)-yl]methyl}cyclopentanecarboxylic acid] | 0.13
CCCCOc1ccc(C(=O)[C@H]2CC[C@@H](Cn3nnc4ccc(C(F)(F)F)cc4c3=O)[C@@H]2C(=O)O)cc1 (racemic) [Example 66, (+/−)-(1RS,2RS,5SR)-2-(4-Butoxybenzoyl)-5-{[4-oxo-6-(trifluoromethyl)-1,2,3-benzotriazin-3 (4H)-yl]methyl}cyclopentanecarboxylic acid] | 0.043

Continued, values first:

IC50 [nM] | SMILES
0.08 | O=C(O)[C@@H]1[C@@H](Cn2nnc3ccc(C(F)(F)F)cc3c2=O)CC[C@H]1C(=O)c1ccc(OCCc2ccccc2)cc1 (single isomer, unassigned) [Example 37, (+)-(1RS,2SR,5RS)-2-{[4-Oxo-6-(trifluoromethyl)-1,2,3-benzotriazin-3(4H)-yl]methyl}-5-[4-(2-phenylethoxy)benzoyl]cyclopentanecarboxylic acid]
0.66 | Cc1ccc2nnn(C[C@@H]3CC[C@H](C(=O)c4ccc(OCCc5ccccc5)cc4)[C@H]3C(=O)O)c(=O)c2c1 (racemic) [Example 112, (+/−)-(1RS,2SR,5RS)-2-[(6-Methyl-4-oxo-1,2,3-benzotriazin-3(4H)-yl)methyl]-5-[4-(2-phenylethoxy)benzoyl]cyclopentanecarboxylic acid]
0.015 | CCCCCOc1ccc(C(=O)[C@H]2CC[C@@H](Cn3nnc4ccc(C(F)(F)F)cc4c3=O)[C@@H]2C(=O)O)cc1 (racemic) [Example 63, (+/−)-(1RS,2SR,5RS)-2-{[4-Oxo-6-(trifluoromethyl)-1,2,3-benzotriazin-3(4H)-yl]methyl}-5-[4-(pentyloxy)benzoyl]cyclopentanecarboxylic acid]
110 | Cc1ccc2nnn(C[C@H]3CC[C@@H](C(=O)c4ccc(OCCc5ccccc5)cc4)[C@@H]3C(=O)O)c(=O)c2c1 (single isomer, unassigned) [Example 114, (−)-(1RS,2SR,5RS)-2-[(6-Methyl-4-oxo-1,2,3-benzotriazin-3(4H)-yl)methyl]-5-[4-(2-phenylethoxy)benzoyl]cyclopentanecarboxylic acid]
170 | O=C(O)[C@@H]1[C@@H](Cn2nnc3ccc(C(F)(F)F)cc3c2=O)CC[C@H]1C(=O)c1ccc(OCc2cccc(Cl)c2)cc1 (single isomer, unassigned) [Example 22, (−)-(1RS,2RS,5SR)-2-{4-[(3-Chlorobenzyl)oxy]benzoyl}-5-{[4-oxo-6-(trifluoromethyl)-1,2,3-benzotriazin-3(4H)-yl]methyl}cyclopentanecarboxylic acid]
0.1 | O=C(O)[C@H]1[C@H](Cn2nnc3ccc(C(F)(F)F)cc3c2=O)CC[C@@H]1C(=O)c1ccc(SCc2cccc(Cl)c2)cc1 (racemic) [Example 76, (+/−)-(1RS,2RS,5SR)-2-{4-[(3-Chlorobenzyl)sulphanyl]benzoyl}-5-{[4-oxo-6-(trifluoromethyl)-1,2,3-benzotriazin-3(4H)-yl]methyl}cyclopentanecarboxylic acid]
1.2 | CCCCCOc1ccc(C(=O)[C@@H]2CC[C@H](Cn3nnc4ccc(C(F)(F)F)cc4c3=O)[C@H]2C(=O)O)cc1 (single isomer, unassigned) [Example 65, (−)-(1RS,2SR,5RS)-2-{[4-Oxo-6-(trifluoromethyl)-1,2,3-benzotriazin-3(4H)-yl]methyl}-5-[4-(pentyloxy)benzoyl]cyclopentanecarboxylic acid]
0.037 | COC(=O)Nc1cccc(COc2ccc(C(=O)[C@H]3CC[C@@H](Cn4nnc5ccc(C(F)(F)F)cc5c4=O)[C@@H]3C(=O)O)cc2)c1 (stereo in doubt) [Example 30, (+/−)-(1RS,2RS,5SR)-2-{4-({3-[(Methoxycarbonyl)amino]benzyl}oxy)benzoyl}-5-{[4-oxo-6-(trifluoromethyl)-1,2,3-benzotriazin-3(4H)-yl]methyl}cyclopentanecarboxylic acid]
0.068 | CCCCCOc1ccc(C(=O)[C@@H]2CC[C@H](Cn3nnc4ccc(C(F)(F)F)cc4c3=O)[C@H]2C(=O)O)cc1 (single isomer, unassigned) [Example 64, (+)-(1RS,2SR,5RS)-2-{[4-Oxo-6-(trifluoromethyl)-1,2,3-benzotriazin-3(4H)-yl]methyl}-5-[4-(pentyloxy)benzoyl]cyclopentanecarboxylic acid]
